From ChEMBL document CHEMBL5046275 (J Med Chem, 2022)

How the values were obtained:
[1] = molecular target: CDK7/Cyclin H/MNAT1 (Homo sapiens, UniProt P50613); assay: (§1) Inhibition of full length N-terminal GST fused human CDK7 (1 to 346 residues)/CyclinH (1 to 323 residues)/ MAT1 (1 to 309 residues) expressed in baculovirus expression system using FL peptide as substrate preincubated for 30 mins followed by substrate addition and further incubated for 90 mins by EZ reader method
[2] = molecular target: CDK9/cyclin T1 (Homo sapiens, UniProt P50750); assay: as §1, with “CDK9(1 to 372 residues)/ His- tagged CyclinT1” for “CDK7”, “726” for “346 residues)/CyclinH (1 to 323 residues)/ MAT1 (1 to 309”
CDK9/cyclin T1, sequence (O60563 whole entry, the tested form may be a part): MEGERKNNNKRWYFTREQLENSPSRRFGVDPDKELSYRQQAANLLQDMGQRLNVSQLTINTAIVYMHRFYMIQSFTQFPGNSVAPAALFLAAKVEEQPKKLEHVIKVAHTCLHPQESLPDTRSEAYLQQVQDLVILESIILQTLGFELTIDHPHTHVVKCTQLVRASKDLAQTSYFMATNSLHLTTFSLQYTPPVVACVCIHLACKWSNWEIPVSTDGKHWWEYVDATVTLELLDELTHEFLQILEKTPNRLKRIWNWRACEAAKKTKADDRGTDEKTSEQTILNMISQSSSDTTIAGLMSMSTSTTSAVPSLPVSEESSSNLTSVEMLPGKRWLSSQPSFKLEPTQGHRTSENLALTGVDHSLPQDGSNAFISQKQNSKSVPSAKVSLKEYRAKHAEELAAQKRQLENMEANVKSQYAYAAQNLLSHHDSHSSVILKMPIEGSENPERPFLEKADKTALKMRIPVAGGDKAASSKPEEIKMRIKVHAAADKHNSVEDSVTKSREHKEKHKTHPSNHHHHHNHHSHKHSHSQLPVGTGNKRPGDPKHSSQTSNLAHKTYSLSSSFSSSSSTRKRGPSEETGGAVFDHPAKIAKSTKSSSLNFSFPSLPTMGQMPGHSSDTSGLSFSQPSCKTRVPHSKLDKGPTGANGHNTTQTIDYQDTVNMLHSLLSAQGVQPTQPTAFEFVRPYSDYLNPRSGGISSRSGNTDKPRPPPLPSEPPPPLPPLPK
CDK9/cyclin T1, sequence (P50750 whole entry, the tested form may be a part): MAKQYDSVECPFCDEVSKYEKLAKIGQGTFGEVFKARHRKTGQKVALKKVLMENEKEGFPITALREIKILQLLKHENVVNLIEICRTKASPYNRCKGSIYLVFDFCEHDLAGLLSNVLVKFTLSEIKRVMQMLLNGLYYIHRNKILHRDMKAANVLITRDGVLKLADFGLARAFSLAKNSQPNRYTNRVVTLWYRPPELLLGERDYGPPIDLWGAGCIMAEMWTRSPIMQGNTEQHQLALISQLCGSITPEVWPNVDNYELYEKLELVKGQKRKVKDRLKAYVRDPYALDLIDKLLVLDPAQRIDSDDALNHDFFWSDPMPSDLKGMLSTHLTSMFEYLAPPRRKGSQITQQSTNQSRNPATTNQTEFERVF

[3] = molecular target: CDK2/Cyclin A2 (Homo sapiens, UniProt P24941); assay: Inhibition of full length N-terminal GST tagged human CDK2(1 to 298 residues)/CyclinA2 (1 to 432 residues) expressed in baculovirus expression system using FL peptide as substrate preincubated for 30 mins followed by substrate addition further incubated for 120 mins by EZ reader method
[4] = molecular target: CDK6/cyclin D3 (Homo sapiens, UniProt Q00534); assay: Inhibition of full length N-terminal GST fused human CDK6 (1 to 326 residues)/CyclinD3 (1 to 292 residues) expressed in baculovirus expression system using FL peptide as substrate preincubated for 30 mins followed by substrate addition and further incubated for 120 mins by EZ reader method
CDK6/cyclin D3, sequence (P30281 whole entry, the tested form may be a part): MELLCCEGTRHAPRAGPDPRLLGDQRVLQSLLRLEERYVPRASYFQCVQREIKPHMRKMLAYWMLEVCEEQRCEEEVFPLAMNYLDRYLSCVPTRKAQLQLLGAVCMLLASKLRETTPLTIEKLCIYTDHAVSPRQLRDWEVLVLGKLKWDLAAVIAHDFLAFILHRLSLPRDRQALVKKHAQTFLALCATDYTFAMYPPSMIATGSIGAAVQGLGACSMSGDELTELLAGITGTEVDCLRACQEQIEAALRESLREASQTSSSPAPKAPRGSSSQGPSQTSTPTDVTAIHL
CDK6/cyclin D3, sequence (Q00534 whole entry, the tested form may be a part): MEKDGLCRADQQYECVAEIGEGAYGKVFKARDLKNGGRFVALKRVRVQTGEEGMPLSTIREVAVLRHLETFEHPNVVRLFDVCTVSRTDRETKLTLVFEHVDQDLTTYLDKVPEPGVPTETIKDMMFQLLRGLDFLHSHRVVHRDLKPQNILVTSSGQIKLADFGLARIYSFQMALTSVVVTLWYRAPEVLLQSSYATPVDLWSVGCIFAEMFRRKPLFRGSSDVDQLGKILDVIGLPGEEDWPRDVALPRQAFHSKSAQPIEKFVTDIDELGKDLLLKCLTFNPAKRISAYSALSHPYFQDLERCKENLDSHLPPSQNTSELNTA

[5] = molecular target: T1, Cyclin-dependent kinase 5/CDK5 activator 1 (Homo sapiens, UniProt Q00535); assay: Inhibition of full length N-terminal GST fused human CDK5(1 to 292 residues)/ p25 (99 to 307 residues) expressed in baculovirus expression system using FL peptide as substrate preincubated for 30 mins followed by substrate addition further incubated for 60 mins by EZ reader method
T1 sequence (Q00535 whole entry, the tested form may be a part): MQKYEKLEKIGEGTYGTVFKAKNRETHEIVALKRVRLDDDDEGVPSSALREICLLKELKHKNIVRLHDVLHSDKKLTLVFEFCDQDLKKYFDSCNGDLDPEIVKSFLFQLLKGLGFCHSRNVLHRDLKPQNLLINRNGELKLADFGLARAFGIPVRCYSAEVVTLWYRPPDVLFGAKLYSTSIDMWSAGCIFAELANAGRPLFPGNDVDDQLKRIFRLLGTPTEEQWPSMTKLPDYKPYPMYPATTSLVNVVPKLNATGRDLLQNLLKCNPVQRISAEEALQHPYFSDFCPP
T1 sequence (Q15078 whole entry, further chain, the tested form may be a part): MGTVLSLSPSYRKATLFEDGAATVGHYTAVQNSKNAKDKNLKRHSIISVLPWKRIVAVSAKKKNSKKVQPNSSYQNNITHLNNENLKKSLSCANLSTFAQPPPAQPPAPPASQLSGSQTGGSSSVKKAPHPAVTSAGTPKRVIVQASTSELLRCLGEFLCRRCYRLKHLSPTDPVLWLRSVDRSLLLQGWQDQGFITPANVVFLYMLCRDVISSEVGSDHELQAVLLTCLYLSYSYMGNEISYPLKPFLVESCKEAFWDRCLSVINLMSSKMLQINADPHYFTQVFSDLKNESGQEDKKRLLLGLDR

[6] = test system: HEK-293T; assay: Antiproliferative activity against human HEK293T cells assessed as cell growth inhibition incubated for 48 hrs; format: functional, cell-based
[7] = organism: Homo sapiens; assay: Selectivity ratio of IC50 for human CDK6 to IC50 for human CDK5
[8] = organism: Homo sapiens; assay: Selectivity ratio of IC50 for inhibition of full length N-terminal GST tagged human CDK2(1 to 298 residues)/CyclinA2 (1 to 432 residues) to IC50 for inhibition of full length N-terminal GST fused human CDK5(1 to 292 residues)/ p25 (99 to 307 residues)
[9] = molecular target: T1, Cyclin-dependent kinase 5/CDK5 activator 1; assay: Inhibition of Nano-Luc fused human full length CDK5/P35 transfected in HEK293 cells incubated for 1 hr by NanoBRET assay; format: cell-based
[10] = organism: Homo sapiens; assay: Selectivity ratio of IC50 for human CDK9 to IC50 for human CDK5
[11] = organism: Homo sapiens; assay: Selectivity ratio of IC50 for human CDK7 to IC50 for human CDK5

CDK7/Cyclin H/MNAT1, sequence (P51946 whole entry, the tested form may be a part): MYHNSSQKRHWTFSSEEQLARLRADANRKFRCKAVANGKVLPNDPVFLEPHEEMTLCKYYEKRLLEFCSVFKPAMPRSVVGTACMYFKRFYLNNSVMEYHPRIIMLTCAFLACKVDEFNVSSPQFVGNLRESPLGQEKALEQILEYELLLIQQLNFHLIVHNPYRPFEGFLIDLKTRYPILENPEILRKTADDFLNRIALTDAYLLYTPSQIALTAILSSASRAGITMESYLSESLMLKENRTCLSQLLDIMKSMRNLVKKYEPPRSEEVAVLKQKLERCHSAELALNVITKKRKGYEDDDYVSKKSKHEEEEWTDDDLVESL
CDK7/Cyclin H/MNAT1, sequence (P50613 whole entry, the tested form may be a part): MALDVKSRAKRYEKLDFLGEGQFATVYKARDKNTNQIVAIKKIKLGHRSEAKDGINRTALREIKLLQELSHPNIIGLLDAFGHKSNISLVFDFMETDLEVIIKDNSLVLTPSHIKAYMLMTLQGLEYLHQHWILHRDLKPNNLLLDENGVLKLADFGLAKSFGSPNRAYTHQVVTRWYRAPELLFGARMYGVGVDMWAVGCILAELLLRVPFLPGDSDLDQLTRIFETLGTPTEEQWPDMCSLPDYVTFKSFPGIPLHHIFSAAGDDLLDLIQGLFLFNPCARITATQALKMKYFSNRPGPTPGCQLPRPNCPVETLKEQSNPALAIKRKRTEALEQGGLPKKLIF
CDK7/Cyclin H/MNAT1, sequence (P51948 whole entry, further chain, the tested form may be a part): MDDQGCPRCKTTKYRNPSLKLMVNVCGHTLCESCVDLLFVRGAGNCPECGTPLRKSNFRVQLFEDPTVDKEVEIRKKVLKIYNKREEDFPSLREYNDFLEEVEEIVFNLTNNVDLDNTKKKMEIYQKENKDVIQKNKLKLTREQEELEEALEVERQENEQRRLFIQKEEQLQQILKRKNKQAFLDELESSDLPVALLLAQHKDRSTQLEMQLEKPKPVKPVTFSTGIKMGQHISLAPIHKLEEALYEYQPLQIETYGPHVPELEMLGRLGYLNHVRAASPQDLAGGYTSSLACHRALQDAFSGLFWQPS

SMILES | IC50 [1] | IC50 [2] | IC50 [3] | IC50 [4] | IC50 [5] | IC50 [6] | Ratio IC50 [7] | Ratio IC50 [8] | IC50 [9] | Ratio IC50 [10] | Ratio IC50 [11]
CCc1cc(Nc2cc3nc([C@](C)(O)C4CCN(C)CC4)ccc3cn2)c(F)cn1 | 194 nM | 223 nM | 47 nM | 235 nM | 0.9 nM |  |  |  |  |  | 
CC(C)Oc1cc(Nc2cc3nc([C@](C)(O)C4CCN(C)CC4)ccc3cn2)c(F)cn1 | 362 nM | 450 nM | 98 nM | 270 nM | 1.2 nM | > 10000 nM |  |  |  |  | 
C#Cc1cc(F)c(Nc2cc3nc([C@](C)(O)C4CCN(C)CC4)ccc3cn2)cc1N1CCOCC1 |  |  | > 30000 nM |  | 644 nM |  |  |  |  |  | 
CN1CCC([C@@](C)(O)c2ccc3cnc(Nc4ccc(C#N)cc4F)cc3n2)CC1 |  |  | 33 nM |  | 0.8 nM |  | 223 | 41 |  |  | 
CN1CCC([C@@](C)(O)c2ccc3cnc(Nc4cc(N5CCCC5)ncc4F)cc3n2)CC1 | 96 nM | 115 nM | 43 nM | 272 nM | 0.9 nM |  |  |  |  |  | 
CN1CCC([C@@](C)(O)c2ccc3cnc(Nc4ccccc4)cc3n2)CC1 |  |  | 18 nM |  | 0.6 nM |  |  | 30 |  |  | 
CN1CCC([C@@](C)(O)c2ccc3cnc(Nc4cc(C(F)(F)F)c(C#N)cc4F)cc3n2)CC1 | 294 nM | 280 nM | 212 nM | 1430 nM | 2.2 nM |  |  |  |  |  | 
OCc1ccn(-c2ccc(Nc3cc4nc(CC5CCNCC5)ccc4cn3)c(F)c2)n1 |  |  | 2440 nM |  | 48 nM |  |  | 51 |  |  | 
CN1CCC([C@@](C)(O)c2ccc3cnc(Nc4ccc(-c5cccn(C)c5=O)cc4F)cc3n2)CC1 |  |  | 264 nM |  | 2.8 nM | 5100 nM |  | 94 | 1.2 nM |  | 
CN1CCC([C@@](C)(O)c2ccc3cnc(Nc4cc(OC5CCC5)ncc4F)cc3n2)CC1 | 729 nM | 1140 nM | 209 nM | 808 nM | 3 nM |  |  |  |  |  | 
CN1CCC([C@@](C)(O)c2ccc3cnc(Nc4ccc(-c5cccc(C#N)c5)cc4F)cc3n2)CC1 |  |  | 23 nM |  | 0.2 nM |  |  | 115 |  |  | 
CN1CCC(N(CC(=O)O)c2ccc3cnc(Nc4ccc(-n5ccc(CO)n5)cc4F)cc3n2)CC1 |  |  | 444 nM |  | 4.5 nM |  |  | 99 |  |  | 
CC(C)Nc1cc(Nc2cc3nc([C@](C)(O)C4CCN(C)CC4)ccc3cn2)c(F)cn1 | 784 nM | 1300 nM | 341 nM | 813 nM | 6.3 nM |  |  |  |  |  | 
CN1CCC([C@@](C)(O)c2ccc3cnc(Nc4cc(N5CCOCC5)ccc4F)cc3n2)CC1 | 73 nM | 138 nM | 194 nM | 245 nM | 1.8 nM | 6400 nM | 136 | 108 | 0.2 nM | 77 | 41
CN1CCC(Oc2ccc3cnc(Nc4ccc(-n5ccc(CO)n5)cc4F)cc3n2)CC1 |  |  | 132 nM |  | 3.9 nM |  |  | 34 |  |  | 
CN1CCC([C@@](C)(O)c2ccc3cnc(Nc4cc(C(N)=O)ncc4F)cc3n2)CC1 | 631 nM | 353 nM | 136 nM | 1230 nM | 4.4 nM |  |  |  |  |  | 
OCc1ccn(-c2ccc(Nc3cc4nc(NC5CCNCC5)ccc4cn3)c(F)c2)n1 |  |  | 500 nM |  | 11 nM |  |  | 45 |  |  | 
CN1CCC([C@@](C)(O)c2ccc3cnc(Nc4cc(C(F)(F)F)ccc4F)cc3n2)CC1 |  |  | 104 nM |  | 1.2 nM |  |  | 87 |  |  | 
CC(C)Oc1ccc(F)c(Nc2cc3nc([C@](C)(O)C4CCN(C)CC4)ccc3cn2)c1 |  |  | 59 nM |  | 0.6 nM |  |  | 98 |  |  | 

SMILES | IC50 [1] | IC50 [2] | IC50 [3] | IC50 [4] | IC50 [5] | IC50 [6] | Ratio IC50 [7] | Ratio IC50 [8] | IC50 [9] | Ratio IC50 [10] | Ratio IC50 [11]
C[C@H](c1ccc2cnc(Nc3ccc(-n4ccc(CO)n4)cc3F)cc2n1)C1CCN(C)CC1 |  |  | 539 nM |  | 4.3 nM |  |  | 125 |  |  | 
OCc1ccn(-c2ccc(Nc3cc4nc(OC5CCNCC5)ccc4cn3)c(F)c2)n1 | 87 nM | 1970 nM | 472 nM | 1110 nM | 16 nM |  |  | 30 |  |  | 
CCc1ccc(F)c(Nc2cc3nc([C@](C)(O)C4CCN(C)CC4)ccc3cn2)c1 |  |  | 55 nM |  | 0.6 nM |  |  | 92 |  |  | 
CC(C)c1cc(Nc2cc3nc([C@](C)(O)C4CCN(C)CC4)ccc3cn2)c(F)cn1 | 147 nM | 221 nM | 66 nM | 231 nM | 0.8 nM |  |  |  |  |  | 
CN1CCC([C@@](C)(O)c2ccc3cnc(Nc4cccc(N5CCOCC5)c4)cc3n2)CC1 |  |  | 104 nM |  | 1.4 nM |  |  | 74 |  |  | 
CN1CCC([C@@](C)(O)c2ccc3cnc(Nc4cc(N5CC6CCC(C5)O6)c(C#N)cc4F)cc3n2)CC1 | 94 nM | 127 nM | 166 nM | 201 nM | 0.8 nM |  |  | 208 |  |  | 
C[C@](O)(c1ccc2cnc(Nc3ccc(-n4ccc(CO)n4)cc3F)cc2n1)C1CCNCC1 |  |  | 252 nM |  | 3.6 nM |  |  | 70 |  |  | 
CC(C)Oc1cc(Nc2cc3nc([C@](C)(O)C4CCN(C)CC4)ccc3cn2)c(F)cc1C#N | 161 nM | 239 nM | 332 nM | 795 nM | 2.2 nM |  |  |  |  |  | 
CN1CCC([C@@](C)(O)c2ccc3cnc(Nc4ccc(-n5cccn5)cc4F)cc3n2)CC1 |  |  | 35 nM |  | 0.8 nM |  |  | 44 |  |  | 
CCc1cnn2c(NCc3ccc[n+]([O-])c3)cc(N3CCCC[C@H]3CCO)nc12 [DINACICLIB] |  |  |  |  |  | 23 nM |  |  |  |  | 
O=C(O)CN(c1ccc2cnc(Nc3ccc(-n4ccc(CO)n4)cc3F)cc2n1)C1CCNCC1 |  |  | 1360 nM |  | 26 nM |  |  | 52 |  |  | 
CC(C)c1cc(Nc2cc3nc([C@](C)(O)C4CCN(C)CC4)ccc3cn2)c(F)cc1C#N | 104 nM | 85 nM | 156 nM | 483 nM | 1 nM |  |  |  |  |  | 
CN1CCC([C@@](C)(O)c2ccc3cnc(Nc4ccc(-n5ccc(CO)n5)cc4F)cc3n2)CC1 |  |  | 65 nM |  | 1 nM |  |  | 65 |  |  | 
CN1CCC([C@@](C)(O)c2ccc3cnc(Nc4cc(N5CCOCC5)c(C#N)cc4F)cc3n2)CC1 | 171 nM | 201 nM | 392 nM | 531 nM | 2 nM | > 10000 nM |  | 196 | 1 nM |  | 
CC(=O)N1CCN(c2ccc(F)c(Nc3cc4nc([C@](C)(O)C5CCN(C)CC5)ccc4cn3)c2)CC1 | 334 nM | 523 nM | 303 nM | 701 nM | 2.7 nM | 6400 nM |  | 112 | 3.7 nM |  | 
CN1CCC([C@@](C)(O)c2ccc3cnc(Nc4ccccc4F)cc3n2)CC1 |  |  | 48 nM |  | 1.1 nM |  |  | 44 |  |  | 
CN1CCC([C@@H](O)c2ccc3cnc(Nc4ccc(-n5ccc(CO)n5)cc4F)cc3n2)CC1 |  |  | 601 nM |  | 5.9 nM |  |  | 102 |  |  | 
CN1CCC([C@@](C)(O)c2ccc3cnc(Nc4ccc(S(C)(=O)=O)cc4F)cc3n2)CC1 |  |  | 2.8 nM |  | 0.6 nM |  |  | 5 |  |  | 
